Measured values taken from ChEMBL document CHEMBL1201862, “PubChem BioAssay data set” (2004).
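Step 1: Grow cells in 96-well plates. Step 2: Expose to compound for 48 hours at 5 concentrations. Step 3: Interpolate endpoints linearly; if unreached, use highest concentration. Abbreviation: GI50, concentration required for 50% inhibition of growth.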 Activity calls are given as the source filed them. No stated cut-off is given here; in the data, active = GI50 up to about 1.1 µM and inactive = higher.

Tests used:
Test in all cases: DTP human tumour cell line panel, 48 h
NCI-H23 = system: NCI-H23
HCT-15 = system: HCT-15
K562 = system: K562
IGROV-1 = system: IGROV-1
786-0 = system: 786-0
NCI-H460 = system: NCI-H460
SR = system: SR
SK-MEL-5 = system: SK-MEL-5
HOP-18 = system: HOP-18
UO-31 = system: UO-31
OVCAR-3 = system: OVCAR-3
Malme-3M = system: Malme-3M
HCT-116 = system: HCT-116
OVCAR-5 = system: OVCAR-5
SK-MEL-2 = system: SK-MEL-2
MDA-MB-435 = system: MDA-MB-435
MCF7 = system: MCF7
MDA-N = system: MDA-N
HL-60 = system: HL-60
PC-3 = system: PC-3

In the case of `CCC1CN2CCC3(c4ccccc4)CC(C(=O)OC)=CC1C23` (configuration not stated), the GI50 (NCI-H23) is reported as 15.4 µM (inactive), the GI50 (HCT-15) is reported as 17.6 µM and the GI50 (K562) is reported as 9.46 µM (inactive). The GI50 (IGROV-1) was 20.4 µM (inactive), the GI50 (786-0) was 17.2 µM (inactive) and the GI50 (NCI-H460) was 17.7 µM (inactive). The GI50 (SR) was 41.3 µM (inactive), the GI50 (SK-MEL-5) was 16.4 µM (inactive) and the GI50 (HOP-18) was 14.9 µM (inactive). For the same compound, the GI50 (UO-31) was 14.1 µM (inactive), the GI50 (OVCAR-3) was 19.2 µM (inactive) and the GI50 (Malme-3M) was 15.9 µM (inactive). The GI50 (HCT-116) was 15.9 µM (inactive) and the GI50 (OVCAR-5) was 5.6 µM (inactive).
With `COc1cc2c(cc1OC)C(=O)Cc1ccc3c(c1CNCC2)OCO3` the GI50 (NCI-H23) was > 100 µM (inactive), the GI50 (HCT-15) was greater than 100 µM and the GI50 (K562) was > 100 µM (inactive). For the same compound, the GI50 (IGROV-1) was > 100 µM (inactive), the GI50 (SK-MEL-2) was > 100 µM (inactive) and the GI50 (786-0) was > 100 µM (inactive). For the same compound, the GI50 (NCI-H460) was > 100 µM (inactive), the GI50 (SK-MEL-5) was > 100 µM (inactive) and the GI50 (HOP-18) was > 100 µM (inactive). For the same compound, the GI50 (UO-31) was > 100 µM (inactive), the GI50 (OVCAR-3) was > 100 µM (inactive) and the GI50 (Malme-3M) was > 100 µM (inactive). For the same compound, the GI50 (HCT-116) was > 100 µM (inactive) and the GI50 (OVCAR-5) was > 100 µM (inactive).
With `CC1C(c2ccc(N(C)C)cc2)c2cc3c(cc2OC1N1CCCC1)OCO3` (configuration not stated) the GI50 (NCI-H23) was 58.3 µM (inactive), the GI50 (HCT-15) was 36.9 µM and the GI50 (K562) was 32.5 µM (inactive). For the same compound, the GI50 (IGROV-1) was > 65.8 µM (inactive), the GI50 (SK-MEL-2) was 30.5 µM (inactive) and the GI50 (786-0) was 43 µM (inactive). For the same compound, the GI50 (NCI-H460) was 34.5 µM (inactive), the GI50 (MDA-MB-435) was 16.6 µM (inactive) and the GI50 (SR) was 38.8 µM (inactive). For the same compound, the GI50 (SK-MEL-5) was 30.6 µM (inactive), the GI50 (UO-31) was 30.8 µM (inactive) and the GI50 (MCF7) was 24.3 µM (inactive). The GI50 (MDA-N) was 14.6 µM (inactive), the GI50 (OVCAR-3) was 43.5 µM (inactive) and the GI50 (HL-60) was 28 µM (inactive). The GI50 (Malme-3M) was 40.7 µM (inactive), the GI50 (PC-3) was 37.3 µM (inactive) and the GI50 (HCT-116) was 36.4 µM (inactive). For the same compound, the GI50 (OVCAR-5) was > 87.1 µM (inactive).
In the case of `COC(=O)/C=C/c1cnc2c(c1)oc(=O)n2CCc1ccccn1`, the GI50 (NCI-H23) is reported as > 100 µM (inactive), the GI50 (HCT-15) is reported as greater than 100 µM and the GI50 (K562) is reported as 73.3 µM (inactive). For the same compound, the GI50 (IGROV-1) was > 100 µM (inactive), the GI50 (SK-MEL-2) was > 100 µM (inactive) and the GI50 (786-0) was > 100 µM (inactive). For the same compound, the GI50 (NCI-H460) was > 100 µM (inactive), the GI50 (MDA-MB-435) was 20.8 µM (inactive) and the GI50 (SR) was 30.8 µM (inactive). The GI50 (SK-MEL-5) was 59.6 µM (inactive), the GI50 (UO-31) was > 100 µM (inactive) and the GI50 (MCF7) was > 100 µM (inactive). For the same compound, the GI50 (MDA-N) was 23.8 µM (inactive), the GI50 (OVCAR-3) was > 100 µM (inactive) and the GI50 (HL-60) was 1.35 µM (inactive). For the same compound, the GI50 (Malme-3M) was > 100 µM (inactive), the GI50 (PC-3) was 90.2 µM (inactive) and the GI50 (HCT-116) was > 100 µM (inactive). For the same compound, the GI50 (OVCAR-5) was > 100 µM (inactive).
In the case of `CC1(C)CCCOc2cccc(c2)OCCCC(C)(C)C1=O`, the GI50 (NCI-H23) is reported as 31.8 µM (inactive), the GI50 (HCT-15) is reported as 35.5 µM and the GI50 (K562) is reported as 14.8 µM (inactive). The GI50 (IGROV-1) was 39.2 µM (inactive), the GI50 (SK-MEL-2) was 24.9 µM (inactive) and the GI50 (786-0) was 41.5 µM (inactive). For the same compound, the GI50 (NCI-H460) was 25.1 µM (inactive), the GI50 (MDA-MB-435) was 34 µM (inactive) and the GI50 (SR) was 34 µM (inactive). The GI50 (SK-MEL-5) was 18.4 µM (inactive), the GI50 (UO-31) was 51.4 µM (inactive) and the GI50 (MCF7) was 31 µM (inactive). The GI50 (MDA-N) was 45.2 µM (inactive), the GI50 (OVCAR-3) was 22 µM (inactive) and the GI50 (HL-60) was 18.1 µM (inactive). The GI50 (Malme-3M) was 27.6 µM (inactive), the GI50 (PC-3) was 14.8 µM (inactive) and the GI50 (HCT-116) was 26.6 µM (inactive). For the same compound, the GI50 (OVCAR-5) was > 100 µM (inactive).
`COCCOCCOC1=C(Cl)C(=O)c2c(O)ccc(O)c2C1=O` was tested, and the GI50 (NCI-H23) was 2.48 µM (inactive), the GI50 (HCT-15) was 1.61 µM and the GI50 (K562) was 1.21 µM (inactive). The GI50 (IGROV-1) was 2.62 µM (inactive), the GI50 (SK-MEL-2) was 1.17 µM (inactive) and the GI50 (786-0) was 1.12 µM (active). For the same compound, the GI50 (NCI-H460) was 12.9 µM (inactive), the GI50 (MDA-MB-435) was 1.74 µM (inactive) and the GI50 (SR) was 0.399 µM (active). The GI50 (SK-MEL-5) was 1.71 µM (inactive), the GI50 (UO-31) was 2.16 µM (inactive) and the GI50 (MCF7) was 1.97 µM (inactive). The GI50 (MDA-N) was 5.02 µM (inactive), the GI50 (OVCAR-3) was 1.63 µM (inactive) and the GI50 (HL-60) was 0.207 µM (active). The GI50 (Malme-3M) was 1.65 µM (inactive), the GI50 (PC-3) was 5.42 µM (inactive) and the GI50 (HCT-116) was 0.923 µM (active). The GI50 (OVCAR-5) was 9.04 µM (inactive).
In the case of `CC(=O)OCCOCCN1CCN(C2=C(Cl)C(=O)c3c(O)ccc(O)c3C2=O)CC1`, the GI50 (NCI-H23) is reported as 0.684 µM (active), the GI50 (HCT-15) is reported as 0.365 µM and the GI50 (K562) is reported as 0.264 µM (active). The GI50 (IGROV-1) was 1.55 µM (inactive), the GI50 (SK-MEL-2) was 1.63 µM (inactive) and the GI50 (786-0) was 0.326 µM (active). For the same compound, the GI50 (NCI-H460) was 4.9 µM (inactive), the GI50 (MDA-MB-435) was 0.71 µM (active) and the GI50 (SR) was 0.0444 µM (active). For the same compound, the GI50 (SK-MEL-5) was 1.54 µM (inactive), the GI50 (UO-31) was 1.22 µM (inactive) and the GI50 (MCF7) was 0.302 µM (active). For the same compound, the GI50 (MDA-N) was 0.497 µM (active), the GI50 (OVCAR-3) was 0.723 µM (active) and the GI50 (HL-60) was 0.0394 µM (active). For the same compound, the GI50 (Malme-3M) was 0.318 µM (active), the GI50 (PC-3) was 1.51 µM (inactive) and the GI50 (HCT-116) was 0.305 µM (active). For the same compound, the GI50 (OVCAR-5) was 1.59 µM (inactive).
`CN(C)c1ccc(/C=C/C(=O)C(C)(C)C)cc1Br` was tested, and the GI50 (NCI-H23) was 26.1 µM (inactive), the GI50 (HCT-15) was 19.9 µM and the GI50 (K562) was 25.2 µM (inactive). The GI50 (IGROV-1) was 35.4 µM (inactive), the GI50 (SK-MEL-2) was 18.9 µM (inactive) and the GI50 (786-0) was 24 µM (inactive). For the same compound, the GI50 (NCI-H460) was 35.8 µM (inactive), the GI50 (SK-MEL-5) was 18.7 µM (inactive) and the GI50 (HOP-18) was > 100 µM (inactive). The GI50 (UO-31) was 32.1 µM (inactive), the GI50 (OVCAR-3) was 33.3 µM (inactive) and the GI50 (Malme-3M) was 28.4 µM (inactive). For the same compound, the GI50 (HCT-116) was 17.7 µM (inactive) and the GI50 (OVCAR-5) was 49 µM (inactive).
